These results are taken from article PMC4667271, “Discovery of a Novel Inhibitor of the Protein Tyrosine Phosphatase Shp2” (Scientific Reports, 2015).

Experiment [1] relates to ERK1/2 activation in transfected HEK293T cells. Nature of the experiment: ERK activity after Shp2 or PTP1B overexpression in HEK293T. Particulars: 20 μM Fumos 24 h. Format: cell-based, human. The method, then: HEK293T, MDA-MB-231and HeLa cell lines were obtained from CRC/PUMC. Cell lines were maintained in Dulbecco’s modified Eagle’s medium supplemented with 10% fetal bovine serum. Transfections were performed in 6-well plates according to manufacturer (Invitrogen Lipofectamine LTX).Briefly, for transient transfection of HEK293T cells, subconfluent cells in 6-well plates were incubated with 2 ml of Dulbecco’s modified Eagle’s medium containing 2.5 μg of total DNA and 7.5 μl of each Lipofectamine and Plus reagent (Invitrogen) and then serum-starved in DMEM/0.1% bovine serum albumin for 18 h. After Fumos treatment for 24 h, cells were stimulated for 5 min with 20 ng/ml EGF.
Figure S2. Fumos inhibits Shp2-mediated ERK1/2 activation in human cells. […]
vectors for PTP1B and Shp2, and either untreated or treated with 20 μM Fumos for 24 h, respectively. Total cell lysates were immunoblotted with antibodies specific for […]
(1 picture or pasted object on this page, not shown here)

A further experiment addresses PTPH1 (Homo sapiens, UniProt P26045). Nature of the experiment: in vitro PTP assay (pNPP), PTPH1. Format: biochemical. The method, then:
(§1) Plasmids for expression of His-tag fusion proteins of human PTP were constructed in PET-28a by PCR subcloning techniques. The constructions contain only the PTP domain except Full-length Shp2. Full-length Shp2 containing Tyr279-to-Ala mutant was generated by PCR-based mutagenesis. All constructs were verified by DNA sequencing. PTP-His fusion proteins were expressed in Escherichia coli BL21 and lysed in the buffer (50 mM NaH2PO4, 300 mM NaCl, 250 mM imidazole, 1 mM dithiothreitol plus 5% glycerol), purified with Ni-NTA Magnetic Agarose Beads (Qiagen). The His-tag recombinant purification protocol was carried out according to the purification under native conditions of the QIAexpress System.
(§2) The assay was set in wells of 96-well plate with a final volume of 100 μl of reaction mixture containing 10 mM of NaAc-HAc, 1 mM of ethylene diamine tetraacetic acid, 1 mM of DL-dithiothreitol and 2% of dimethyl sulfoxide, pH 5.5. Activity of the enzyme was assayed by incubating recombinant PTP protein or mutant PTP with various concentrations of Fumos in the mixture at 37 °C for 30 min. Absorbance at 405 nm was detected immediately after addition of varied concentrations of substrate, p-nitrophenyl phosphate (pNPP) to each corresponding well.

The subject of experiment [2] is Src and Paxillin phosphorylation in HeLa cells. Nature of the experiment: Src, PLCγ1 and Paxillin phosphorylation, Western blot, HeLa. Format: cell-based, human. The following applies: 10-40 μM 24 h, EGF. The source says: Figure 6 Fumos affects the phosphorylation of Src and Paxillin. […] DMSO treatment as control. Western blotting analysis for the expression of p-Src(Tyr416) p-Src (Tyr530), Src, p-PLCγ1, PLCγ1, p-Paxillin(Tyr118), p-Paxillin (Tyr31) and Paxillin. (b,c) Densitometric analysis of pSrc530/Src in the Western blots of Hela and MDA-MB-231, respectively. Bars represent mean ± S.E.M. values from three experiments, **p = 0.006 < 0.01/F = 8 vs EGF, one-way ANOVA followed by Tukey’s test.
(§3) After centrifugation, the supernatant was collected.

In a further experiment the target is T1, Shp2 PTP domain (Homo sapiens, UniProt Q06124).
T1 sequence (Q06124 247-517 limits assumed): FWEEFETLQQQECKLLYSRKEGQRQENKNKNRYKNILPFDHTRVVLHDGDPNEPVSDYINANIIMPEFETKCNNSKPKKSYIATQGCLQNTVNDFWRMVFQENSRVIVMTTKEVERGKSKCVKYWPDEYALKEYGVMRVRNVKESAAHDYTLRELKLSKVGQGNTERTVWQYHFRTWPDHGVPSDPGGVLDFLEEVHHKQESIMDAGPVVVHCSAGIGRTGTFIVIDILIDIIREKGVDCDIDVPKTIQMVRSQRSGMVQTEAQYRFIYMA
Nature of the experiment: in vitro PTP assay (pNPP), Shp2 PTP domain. Format: biochemical. The method, then:
as §1, §2

The next experiment addresses HePTP (Homo sapiens, UniProt P35236). Nature of the experiment: in vitro PTP assay (pNPP), HePTP. Format: biochemical. The method, then:
as §1, §2

Experiment [3] relates to ERK1/2 phosphorylation in HeLa cells. Nature of the experiment: EGF-induced ERK1/2 activation, Western blot, HeLa. Particulars: 10-40 μM for 24 h, EGF 20 ng/ml 5 min. Format: cell-based, human.
Text: as §3

In another experiment the test system is HeLa cells. Nature of the experiment: Transwell invasion assay, HeLa. Format: cell-based, human. The following applies: 4 and 14 μM, 24 h, EGF in lower chamber. The method, then:
The invasion assay was performed in Transwell chambers according to Corning methods. Briefly, the upper chamber of a Transwell insert ([…] pore size) was coated with 40 μl 1:6 mixture of Matrigel (BD Biosciences, Bedford): Opti-MEM (Invitrogen) for MDA-MB-231 and 40 μl 1:12 mixture of Matrigel: Opti-MEM (Invitrogen) for HeLa cells and dried for 2 h at 37 °C. The lower chamber was filled with serum-free media containing 10 ng/ml EGF. Cells were seeded into upper chamber at a density 5 × 10^4 cells/ml per well in serum-free media. Cells were treated with series concentrations of Fumos for 24 h. The top aspect of the membrane was gently swabbed the inside of each insert using cotton swabs, and cells that invaded on the lower surface of the membrane were fixed using methanol and stained with crystal violet (Beyotime Institute of Biotechnology). Random fields were counted and photographed by microscope (Olympus).

Each structure is given as a SMILES string.

HePTP, sequence (P35236 97-350 limits assumed): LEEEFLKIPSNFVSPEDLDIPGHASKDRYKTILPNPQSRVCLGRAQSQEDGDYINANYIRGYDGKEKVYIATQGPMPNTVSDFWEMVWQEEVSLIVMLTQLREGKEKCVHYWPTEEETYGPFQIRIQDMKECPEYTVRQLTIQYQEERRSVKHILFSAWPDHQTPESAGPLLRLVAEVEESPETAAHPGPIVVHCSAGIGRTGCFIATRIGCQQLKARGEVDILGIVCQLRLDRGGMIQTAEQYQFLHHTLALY
PTPH1, sequence (P26045 646-901 limits assumed): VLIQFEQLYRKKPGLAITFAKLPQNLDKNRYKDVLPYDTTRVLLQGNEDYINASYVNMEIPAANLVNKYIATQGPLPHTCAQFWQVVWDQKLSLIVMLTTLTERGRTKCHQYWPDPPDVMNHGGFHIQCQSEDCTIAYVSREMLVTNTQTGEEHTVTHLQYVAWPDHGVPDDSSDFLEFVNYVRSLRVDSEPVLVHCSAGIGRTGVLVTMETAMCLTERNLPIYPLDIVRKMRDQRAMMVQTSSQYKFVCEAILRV

For `CC[C@@H](C)C[C@@H](C)/C=C(C)/C=C/C=C/C=C(\C)C(=O)c1c(O)c(-c2ccc(O)cc2)cn(O)c1=O` [Fumos, Fumosorinone], in experiment [1], the “ERK activity after Fumos treatment in cells transfected with PTP1B” value is given as “little recovery” and the “ERK activity after Fumos treatment in cells transfected with Shp2” value is given as “partially recovered”. On PTPH1 (PTPH1 PTP domain), this compound showed a half-maximal inhibitory concentration (IC50) of more than 100 µM. This compound registered an IC50 selective against PTPH1 (PTPH1 relative to Shp2 PTP domain) of more than 16. In addition, in experiment [2], the “Src Tyr416 phosphorylation” value is recorded as “dose-dependent downregulation”; the “phosphorylated Tyr 530 of Src” value is given as “moderately increased”; the “phosphorylation of PLCγ1” value is “decreased”; the “phosphorylation of Paxillin at Tyr31” value is “peaked at low concentrations of Fumos and reduced at high concentrations”. For the same compound, in experiment [2], the “phosphorylation of Paxillin at Tyr118” value was “decreased with the increasing concentrations”. In addition, the IC50 against Shp2 PTP domain was determined as 6.31 ± 0.52 µM. On Shp2 PTP domain (Shp2 relative to Shp2 PTP domain), this compound displayed an IC50 selective of 1. At HePTP (HePTP PTP domain), this compound came in with an IC50 of more than 100 µM. The IC50 selective against HePTP (HePTP relative to Shp2 PTP domain) was more than 16. Moreover, the “EGF-induced ERK1/2 phosphorylation” value in experiment [3] is listed as “drastically decreased”. Also, in the experiment with HeLa cells, the “cell invasion (Transwell)” value was “significantly inhibited”.
